Columns and labels:
human GPR84 receptor = target: T1, human GPR84 receptor (Homo sapiens, UniProt Q9NQS5); experiment: Gαi biosensor BRET assay in HEK293 cells (antagonism of ZQ-16); type: cell-based; settings: for inhibition at 10 µM: HEK293, single concentration 10 μM (designated F); for IC50: HEK293 cells, antagonism of 200 nmol/L ZQ-16; for inhibition at 1 µM: HEK293, single concentration 1 μM (designated A°); for inhibition at 25 µM: HEK293, single concentration 25 μM (designated I); for inhibition at 5 µM: HEK293, single concentration 5 μM (designated D); for inhibition at 2 µM: HEK293, single concentration 2 μM (designated A)
T1 construct: host or cells: HEK293, transient transfection
Method in brief: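 HEK293 cells transiently expressing human GPR84, Gαi2-Rluc8, GFP10-Gγ2 and Gβ1, in Tyrode's buffer pH 7.5. Compounds preincubated 5 min at 37° C, then 200 nmol/L ZQ-16 for 5 min at room temperature; coelenterazine 400A 5 μmol/L. BRET2 acceptor/donor ratio, background- and vehicle-corrected net BRET.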

neutrophils = experiment: Neutrophil migration assay (embelin as chemotactic agent, ATPlite readout); type: cell-based; settings: for IC50: Neutrophil, human neutrophils, embelin as chemotactic agent, read-out: Human Neutrophil migration inhibition IC50; for Human Neutrophil migration inhibition - fold potency to Control Compound: normalized to GPR84 antagonist Control Compound (average IC50 131 nM)
Method: Neutrophil migration assay. After isolation, neutrophils were resuspended in chemotaxis buffer (DMEM supplemented with 10 mM HEPES) at a concentration of 8.9×10^6 cells/ml. In a 96-well plate, 20 μl of compound solution in chemotaxis buffer is added to 180 μl of cell suspension. After incubation at 37° C. for 30 minutes, 75 μl of cell suspension is transferred in the upper chamber of a 5 μm pore size Corning HTS transwell. 235 μl of chemotaxis buffer containing the chemotactic agent (embelin) is added to the lower chamber of the transwell. After a 60-minute incubation time at 37° C. in 5%0 C02, the upper chamber of the transwell is removed and the plate is centrifuged at 1500 rpm for 6 minutes. Supermatant is removed and cells resuspended in 100 ul of PBS. ATP content was assessed using ATPlite Luminescence Assay System® according to manufacturer instructions (Perkin Elmer, Buckinghamshire, UK). Briefly, 50 μl of ATPlite buffer and 50 μl of lysis solution is added to the lower chamber of the Transwells. After incubation at room temperature, in the dark with constant agitation for 5 minutes, 150 μl of cell lysate is transferred in a 96 wells white plate and incubated for 10 minutes in the dark. Luminescence is read on a TECAN plate reader, Infinite M1000 (Tecan, Morrisville, NC).
The compound numbers correspond to the compound numbers in Table 1. […] Normalization of the results takes the donor's variation into account.

T1 sequence (Q9NQS5 whole entry): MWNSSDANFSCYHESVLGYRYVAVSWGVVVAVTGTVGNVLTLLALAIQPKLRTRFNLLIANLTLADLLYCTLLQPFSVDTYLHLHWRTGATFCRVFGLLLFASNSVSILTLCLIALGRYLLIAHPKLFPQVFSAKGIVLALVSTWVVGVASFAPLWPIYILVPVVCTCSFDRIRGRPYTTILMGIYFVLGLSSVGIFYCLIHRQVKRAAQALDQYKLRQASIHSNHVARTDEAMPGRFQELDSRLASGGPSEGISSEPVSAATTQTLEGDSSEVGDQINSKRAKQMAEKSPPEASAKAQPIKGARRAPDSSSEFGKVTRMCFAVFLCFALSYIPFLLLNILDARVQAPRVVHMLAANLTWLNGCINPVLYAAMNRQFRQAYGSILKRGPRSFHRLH

Row | inhibition at 10 µM (human GPR84 receptor) | IC50 (human GPR84 receptor) | IC50 (neutrophils) | Compound | Human Neutrophil migration inhibition - fold potency to Control Compound (neutrophils) | further results
1 | – | > 3000 nM | 1000 to 3000 nM | Cc1cc(C#CC2CC2)ccc1-c1cn(CC2CCCCO2)nn1 (stereo not drawn) [Compound I-34] | C (IC50≤0.5-fold relative to Control Compound) | inhibition at 6.25 µM (human GPR84 receptor; HEK293, single concentration 6.25 μM (designated E)): 50 to 75%
2 | – | 1000 to 3000 nM | 1000 to 3000 nM | Cc1ccc(C#CC2CC2)cc1-c1cn(CC2CCCCO2)nn1 (stereo not drawn) [Compound I-65] | C (IC50≤0.5-fold relative to Control Compound) | inhibition at 25 µM (human GPR84 receptor): > 75%
3 | – | > 3000 nM | 1000 to 3000 nM | Cc1cc(C#CC(C)C)ccc1-c1cn(CC2CCCCO2)nn1 (stereo not drawn) [Compound I-66] | C (IC50≤0.5-fold relative to Control Compound) | –
4 | – | 1000 to 3000 nM | 300 to 1000 nM | Cc1cc(C#CC(C)(C)C)ccc1-c1cn(CC2CCCCO2)nn1 (stereo not drawn) [Compound I-67] | B (IC50 of >0.5-≤1.0-fold relative to Control Compound) | –
5 | > 75% | – | – | OCC#Cc1cnc(-c2cn(CC3OCC4(CC4)CO3)nn2)c(OC2CC2)c1 [Compound I-839] | – | –
6 | 50 to 75% | – | – | Cc1ccc(Cl)cc1N(C)c1cn(CC2OCC3(CC3)CO2)nn1 [Compound I-844] | – | –
7 | ≤ 25% | – | – | CC(C)OCC#Cc1cnc(-c2cn(CC3OCC(C)(C)CO3)nn2)c(OC(C)C)c1 [Compound I-846] | – | –
8 | ≤ 25% | – | – | COCC#Cc1cnc(-c2cn(CC3OCC(C)(C)CO3)nn2)c(OCC(F)(F)F)c1 [Compound I-847] | – | –
9 | ≤ 25% | – | – | COCC#Cc1cnc(-c2cn(CC3OCC(C)(C)CO3)cn2)c(OC2CC2)c1 [Compound I-848] | – | –
10 | > 75% | – | – | CN(C)c1cc(N2CC3(COC3)C2)c(F)cc1-c1cn(CC2OCC(C)(C)CO2)nn1 [Compound I-849] | – | –
11 | > 75% | – | – | CC#Cc1ccc(C)c(N(C)c2cn(CC3OCC4(CC4)CO3)nn2)c1 [Compound I-850] | – | –
12 | ≤ 25% | – | – | CCc1cc(C#CCNC2CC2)ccc1-c1cn(CC2OCC(C)(C)CO2)nn1 [Compound I-851] | – | –
13 | ≤ 25% | – | – | CN(C)c1cc(N2CC3(COC3)C2)ccc1-c1cn(CC2OCC3(CC3)CO2)nn1 [Compound I-853] | – | –
14 | > 75% | – | – | CC1(C)COC(Cn2cc(-c3ncc(C#CCNC4CC4)cc3OC3CC3)nn2)OC1 [Compound I-856] | – | –
15 | ≤ 25% | – | – | CCc1cc(C#CCN(C)C2CC2)ccc1-c1cn(CC2OCC(C)(C)CO2)nn1 [Compound I-857] | – | –
16 | > 75% | – | – | CC(C)C#Cc1cnc(-c2cn(CC3OCC4(CC4)CO3)nn2)c(OC2CC2)c1 [Compound I-861] | – | –
17 | 50 to 75% | – | – | FC1(F)CC(C#Cc2cnc(-c3cn(CC4OCC5(CC5)CO4)nn3)c(OC3CC3)c2)C1 (stereo not drawn) [Compound I-862] | – | –
18 | 25 to 50% | – | – | Cc1cc(C2CC2)cnc1-c1cn(CC2OCC(C)(C)CO2)nn1 [Compound I-871] | – | –

The remaining lines, values behind:

Row | Compound | inhibition at 10 µM (human GPR84 receptor) | IC50 (human GPR84 receptor) | IC50 (neutrophils) | Human Neutrophil migration inhibition - fold potency to Control Compound (neutrophils) | further results
19 | Cc1cc(C#CCNc2ccccc2)ccc1-c1cn(C[C@@H]2CCCCO2)nn1 (stereo in doubt) [Compound I-144] | ≤ 25% | 1000 to 3000 nM | 1000 to 3000 nM | C (IC50≤0.5-fold relative to Control Compound) | –
20 | CN(C)c1cc(N2CC(C)(CO)C2)ccc1-c1cn(C[C@H]2CC(C)(C)CO2)nn1 (stereo in doubt) [Compound I-588] | – | ≤ 300 nM | ≤ 300 nM | A (IC50 of >1.0-fold relative to Control Compound) | inhibition at 1 µM (human GPR84 receptor): > 75%
21 | CN(C)c1cc(N2CC(C)(CO)C2)ccc1-c1cn(C[C@@H]2CC(C)(C)CO2)nn1 (stereo in doubt) [Compound I-589] | – | ≤ 300 nM | ≤ 300 nM | A (IC50 of >1.0-fold relative to Control Compound) | inhibition at 1 µM (human GPR84 receptor): > 75%
22 | Cc1cc(N2CCN(Cc3ccccn3)CC2)ccc1-c1cn(C[C@H]2CCC(F)(F)CO2)nn1 (stereo in doubt) [Compound I-635] | 50 to 75% | ≤ 300 nM | 300 to 1000 nM | C (IC50≤0.5-fold relative to Control Compound) | –
23 | Cc1cc(N2CCN(Cc3ccccn3)CC2)ccc1-c1cn(C[C@@H]2CCC(F)(F)CO2)nn1 (stereo in doubt) [Compound I-636] | > 75% | ≤ 300 nM | ≤ 300 nM | A (IC50 of >1.0-fold relative to Control Compound) | –
24 | Cc1ccc(C#CC2CC2)cc1-c1nnn(CC2CCCCO2)n1 (stereo not drawn) [Compound I-7] | – | > 3000 nM | > 3000 nM | C (IC50≤0.5-fold relative to Control Compound) | inhibition at 25 µM (human GPR84 receptor): > 75%
25 | Cc1ccc(C#CC2CC2)cc1-n1nc(CC2CCCCO2)oc1=O (stereo not drawn) [Compound I-14] | > 75% | 1000 to 3000 nM | ≤ 300 nM | A (IC50 of >1.0-fold relative to Control Compound) | –
26 | Cc1ccc(C#CC2CC2)cc1-n1nc(CC2CCCO2)oc1=O (stereo not drawn) [Compound I-17] | > 75% | 300 to 1000 nM | ≤ 300 nM | B (IC50 of >0.5-≤1.0-fold relative to Control Compound) | –
27 | Cc1cc(C#CCNc2ccccc2)ccc1-c1cn(CC2CCCCO2)nn1 (stereo not drawn) [Compound I-68] | – | 1000 to 3000 nM | 300 to 1000 nM | B (IC50 of >0.5-≤1.0-fold relative to Control Compound) | inhibition at 5 µM (human GPR84 receptor): 50 to 75%
28 | Cc1cc(N2CC(C)(C)C2)ccc1-c1cn(CC2CCCCO2)nn1 (stereo not drawn) [Compound I-75] | – | 300 to 1000 nM | ≤ 300 nM | B (IC50 of >0.5-≤1.0-fold relative to Control Compound) | inhibition at 25 µM (human GPR84 receptor): > 75%
29 | Cc1cc(C#CCN(C)Cc2ccccc2)ccc1-c1cn(CC2CCCCO2)nn1 (stereo not drawn) [Compound I-76] | – | 300 to 1000 nM | ≤ 300 nM | B (IC50 of >0.5-≤1.0-fold relative to Control Compound) | inhibition at 5 µM (human GPR84 receptor): > 75%
30 | CCc1cc(C#CC2CC2)ccc1-c1cn(CC2CCCCO2)nn1 (stereo not drawn) [Compound I-77] | – | 300 to 1000 nM | ≤ 300 nM | A (IC50 of >1.0-fold relative to Control Compound) | inhibition at 5 µM (human GPR84 receptor): > 75%
31 | Cc1cc(C#CC2CC2)cnc1-c1cn(CC2OCC3(CCC3)CO2)nn1 [Compound I-840] | – | – | – | – | inhibition at 2 µM (human GPR84 receptor): > 75%
32 | Cc1cc(C#CCn2ccnn2)cnc1-c1cn(CC2CCCCO2)nn1 (stereo not drawn) [Compound I-841, 5-(3-(1H-1,2,3-triazol-1-yl)prop-1-yn-1-yl)-3-methyl-2-(1-((tetrahydro-2H-pyran-2-yl)methyl)-1H-1,2,3-triazol-4-yl)pyridine] | – | – | – | – | inhibition at 2 µM (human GPR84 receptor): > 75%
33 | Cc1ccc(C#CC2CC2)cc1N(C)c1cn(CC2OCC3(CC3)CO2)nn1 [Compound I-842] | – | – | – | – | inhibition at 2 µM (human GPR84 receptor): 50 to 75%
34 | Cc1cc(C#CCNC(=O)C(F)(F)F)cnc1-c1cn(CC2CCCCO2)nn1 (stereo not drawn) [Compound I-843, 2,2,2-trifluoro-N-(3-(5-methyl-6-(1-((tetrahydro-2H-pyran-2-yl)methyl)-1H-1,2,3-triazol-4-yl)pyridin-3-yl)prop-2-yn-1-yl)acetamide] | > 75% | – | – | – | –
35 | CC1(C)COC(Cn2cnc(-c3ncc(C#CCN4CC(C)(C)C4)cc3OC3CC3)c2)OC1 [Compound I-845] | > 75% | – | – | – | –
36 | CCc1cc(C#CCN(C)C)ccc1-c1cn(CC2OCC(C)(C)CO2)nn1 [Compound I-852] | – | – | – | – | inhibition at 2 µM (human GPR84 receptor): > 75%
37 | CN(C)c1cc(N2CC3(CCOCC3)C2)ccc1-c1cn(CC2OCC(C)(C)CO2)nn1 [Compound I-854] | – | – | – | – | inhibition at 2 µM (human GPR84 receptor): > 75%
38 | O=C(O)c1cnc(-c2cn(CC3OCC4(CC4)CO3)nn2)c(OC2CC2)c1 [Compound I-855] | – | – | – | – | inhibition at 2 µM (human GPR84 receptor): > 75%
39 | CN(CC#Cc1cnc(-c2cn(CC3OCC(C)(C)CO3)nn2)c(OC2CC2)c1)C1CC1 [Compound I-858] | – | – | – | – | inhibition at 2 µM (human GPR84 receptor): > 75%
40 | CCc1cc(C#CCNC)ccc1-c1cn(CC2OCC(C)(C)CO2)nn1 [Compound I-859] | – | – | – | – | inhibition at 2 µM (human GPR84 receptor): > 75%
41 | CN(C)c1cc(N2CCOCC2)ccc1-c1cn(CC2OCC(C)(C)CO2)nn1 [Compound I-863] | – | – | – | – | inhibition at 2 µM (human GPR84 receptor): > 75%
42 | Cc1cc(N2CC(C)(C)C2)ccc1-c1cn(CC2CCCCO2)nn1 (stereo not drawn) [Compound I-864] | 25 to 50% | 300 to 1000 nM | – | – | –
43 | CCc1cc(C#CC2CC2)ccc1-c1cn(CC2CCCCO2)nn1 (stereo not drawn) [Compound I-865] | ≤ 25% | 300 to 1000 nM | – | – | –
44 | Cc1cc(C#CC2CC2)cnc1-c1cn(CC2CCCCO2)nn1 (stereo not drawn) [Compound I-866] | – | 1000 to 3000 nM | – | – | –
45 | Cc1cc(C#CCN2CCN(c3ccccc3)CC2)ccc1-c1cn(CC2CCCCO2)nn1 (stereo not drawn) [Compound I-867] | – | ≤ 300 nM | – | – | –

From patent US12617777B2, “GPR84 antagonists and uses thereof” (Liminal BioSciences Limited, priority 2021, dated 2026)
